According to patent US20090075921A1, “Bone/joint disease sensitivity gene and use thereof” (Riken, priority 2004, published 2009):

Legend:
NHAC-kn = test: Induction with TGF-β1 of asporin gene expression in NHAC-kn; format: cell-based, human; conditions: TGF-β1 10 ng/ml, 24 hours
Protocol: (§1) In various cartilage lineage cell lines, the potential of TGF-β1 for inducing asporin gene expression was examined by the method described below. OUMS-27 was cultured in a DMEM containing 10% FBS, CS-OKB was cultured in an RPMI1640 containing 10% FBS, and normal human articular chondrocytes of knee joint (NHAC-kn, P7, monolayer, Clonetics) were cultured using Chondrocyte Growth Medium (CGM, Clonetics). ATDC5 was cultured using the medium 1-2 described in Example 13. For the induction experiments in the cartilage lineage cell lines, cells were cultured in the above-described media until they became confluent, after which the medium was exchanged with a medium containing 0.2% FBS, and the cells were cultured for 12 hours; TGF-β1 (10 ng/ml) was added, and the cells were further cultured for 24 hours. RNA extraction, cDNA synthesis, and real-time PCR were performed by the methods described in Example 12.

OUMS-27 = test: Induction with TGF-β1 of asporin gene expression in OUMS-27; format: cell-based, human; conditions: TGF-β1 10 ng/ml, 24 hours
Protocol: as §1

ATDC5 = test: Induction with TGF-β1 of asporin gene expression in ATDC5; format: cell-based, mouse; conditions: TGF-β1 10 ng/ml, 24 hours
Protocol: as §1

NHAC [1] = test: Articular chondrocyte differentiation maintenance in redifferentiated NHAC; format: cell-based, human; conditions: 7 days, TGF-β1 40 ng/ml, asporin 20 μg/ml where added
Protocol: NHAC was redifferentiated by alginate beads culture for 2 weeks using a chondrocyte differentiation medium (CDM) manufactured by Cambrex Company according to the protocol attached. These redifferentiated cells were inoculated to a Lab-Tek II chamber slide (Nunc), a DMEM/F12 containing 5% FBS, ITS (Sigma), and TGF-β1 (40 ng/ml) was added, and the cells were allowed to maintain the degree of differentiation thereof; the effects of addition of asporin (20 μg/ml) on the cell morphology and extracellular proteoglycan accumulation were examined.

NHAC [2] = test: Time course of asporin gene expression by TGF-β1 in NHAC; format: cell-based, human; conditions: TGF-β1 10 ng/ml
Protocol: A time course of the expression of the asporin gene by TGF-β1 in NHAC was examined as described below. Cells were inoculated to a 12-well plate at 1×10^5 cells/well, and cultured in a DMEM/F12 containing 10% FBS until they became confluent. The medium was exchanged with a DMEM/F12 containing 0.2% FBS, and the cells were cultured for 24 hours, after which TGF-β1 (10 ng/ml) was added, total RNA was extracted over time, and the expression levels of the asporin and GAPDH genes were examined. As a result, the expression level of the asporin gene maximized when the cells were cultured in the presence of TGF-β1 (10 ng/ml) for 12 hours, and thereafter the expression level decreased over time (FIG. 46).

NHAC [3] = test: MTT assay of TGF-β1-stimulated cell growth in NHAC; format: cell-based, human; conditions: TGF-β1 40 ng/ml alone, 5 days
Protocol: NHAC was inculated to a 12-well plate at 1×10^5 cells/well, and cultured in a DMEM/F12 containing 10% FBS supplemented with TGF-β1 (40 ng/ml) and asporin (5 or 20 μg/ml) for 5 days, after which the degree of cell growth was examined by the MTT assay method described below. Specifically, 3-(4,5-dimethyl-2-thiazolyl)-2,5-diphenyl-2H-tetrazolium bromide (MTT, Dojindo Laboratory) was dissolved in DMEM/F12 to obtain a concentration of 1 mg/ml, the solution was added to the cells after the medium was removed by suction, and the cells were cultured at 37° C. for 1 hour. Thereafter the medium containing MTT was discarded, and the cells were subjected to extraction treatment using a Lysis reagent (86% isopropanol, 40 mM hydrochloric acid, 1% SDS). This cell lysate was transferred to a 96-well plate, and the absorbance at 550 nm was measured using a microplate reader.

[4] = system: ATDC5 cell lines that stably express human asporin; test: TGF-βs-stimulated aggrecan and type II collagen gene expression in ATDC5 lines stably expressing human asporin; format: cell-based, mouse; conditions: stably expressing lines vs mock, TGF-βs 10 ng/ml, 24 hours
Protocol: Plasmid DNAs for allowing ATDC5 cells, a mouse cartilage stem cell line, to stably express human asporin were prepared as described below. First, by the method described below, full-length cDNAs of human asporin D13 and D14 were acquired. Using KOD-plus (Toyobo), according to the method described in the attached protocol, a reaction mixture was prepared. Per 25 μl of the reaction mixture, […] each of a sense strand primer comprising the initiation codon and a restriction enzyme XhoI site, and an antisense strand primer comprising the stop codon of aspotin and a restriction enzyme BamHI site, were used as the primers, and 1 μl (10 ng as total RNA) of a cDNA solution prepared from total RNA extracted from knee articular cartilage from OA patients carrying the D13 allele and the D14 allele of aspartic acid repeat polymorphisms in asporin heterologously was used as the template. […]
The TGF-βs-stimulated expression of the aggrecan and type II collagen genes in ATDC5 cell lines that stably express human asporin was quantified by the method described below. […] For real-time PCR, reactions were performed using QuantiTect SYBR Green PCR Kit (QIAGEN), and detection and quantitation were performed using ABI PRISM 7700. […]

[5] = system: ATDC5 cell lines that transiently express human asporin; test: TGF-β1-stimulated aggrecan and type II collagen gene expression in ATDC5 transiently expressing human asporin; format: cell-based, mouse; conditions: transient expression vs mock, TGF-β1 10 ng/ml, 18 hours
Protocol: ATDC5 cells were inoculated to a 12-well plate at 0.5×10^5 cells/well, and cultured in a medium 1-2 (DMEM/F12 medium containing 5% FBS, ITS (Sigma), penicillin (100 U/ml) and streptomycin (100 μg/ml)). 24 hours later, pcDNA3.1-ASP13 or pcDNA3.1-ASP14 were introduced using FuGENE-6 (Roche), and the cells were cultured for 24 hours. Next, the medium was exchanged with a medium 1-2 containing 0.2% FBS, and the cells were cultured for 12 hours, after which TGF-β1 (10 ng/ml) was added, and the cells were further cultured for 18 hours, after which total RNA extraction, purification, cDNA synthesis, and real-time PCR were performed in the same manner as Example 18. As a result, the elevation of the TGF-β1-stimulated expression levels of the aggrecan and type II collagen genes was suppressed in the ATDC5 cells allowed to transiently express human asporin D13 or D14 compared to mock (FIG. 14).
First, the expression level of the aggrecan gene elevated by TGF-β1 stimulation in mock is written as (AM), and the expression level of the type II collagen gene at the same time is written as (CM). Next, the TGF-β1-stimulated aggrecan gene expression level suppressed by the forced expression of asporin D13 is written as (A13), and the type II collagen gene expression level at the same time is written as (C13). […] Thus, the suppression rate of the TGF-β1-stimulated aggrecan gene expression in the asporin D13 expressing line can be expressed as (A13)/(AM), and the suppression rate of the type II collagen gene expression as (C13)/(CM). Likewise, the suppression rate of the TGF-β1-stimulated aggrecan gene expression in the asporin D14 expressing line can be expressed as (A14)/(AM), and the suppression rate of the type II collagen gene expression as (C14)/(CM). Furthermore, by making a correction by dividing these values by the human asporin mRNA content obtained with TGF-β1 stimulation, the suppression rate of the aggrecan and type II collagen gene expression per human asporin mRNA content were calculated. […]

[6] = system: ATDC5 cell lines that stably express human asporin; test: Cartilage differentiation culture of ATDC5 lines stably expressing human asporin; format: cell-based, mouse; conditions: stably expressing lines, 5, 9, 15 or 21 days; mock peaks on Day 9
Protocol: The ATDC5 cell lines that stably express human asporin prepared in Example 17 were inoculated to a 12-well plate at 0.3×10^5 cells/well, and cultured in a medium 1-1 for 5, 9, 15 or 21 days, after which total RNA extraction, purification, cDNA synthesis, and real-time PCR were performed in the same manner as Example 18.

[7] = system: ATDC5 cell lines that stably express human asporin; test: Alcian Blue staining of extracellular proteoglycan in ATDC5 lines stably expressing human asporin; format: cell-based, mouse; conditions: Day 21 of cultivation, absorbance at 630 nm
Protocol: The ATDC5 cell lines that stably express human asporin prepared in Example 17 were cultured by the method described in Example 20; using the cells on Day 21 after the start of cultivation, Alcian Blue staining was performed as described below. First, the medium was removed by suction, and the cell surface was washed with cold PBS three times, after which methanol fixation was performed at 4° C. for 2 minutes. The methanol was removed by suction, the cells were once rinsed with distilled water, and then stained using 0.1% Alcian Blue 8GX (Sigma)/3% acetic acid solution at 4° C. for 2 days. The staining solution was removed, the cells were washed with distilled water three times, and then examined under microscope and photographed. Thereafter, the cells were treated with aqueous solution of 6 M guanidine hydrochloride to extract the stained proteoglycan, after which the absorbance at 630 nm was measured.

TGF-β1: TGF-β isoform, regulatory factor of cartilage differentiation used as stimulus
expression of the asporin gene with TGF-β1 stimulation (NHAC-kn): significant increases | expression of the asporin gene with TGF-β1 stimulation (OUMS-27): significant increases | expression of asporin with TGF-β1 stimulation (ATDC5): tended to be slightly suppressed | Safranine-O stainability (extracellular proteoglycan) (NHAC [1]): positive | cell morphology (NHAC [1]): egg-like morphology | culture time at which the expression level of the asporin gene maximized (NHAC [2]): 12 h | expression level of asporin after 3 days in the presence of TGF-β1 (NHAC [2]; vs control): smaller than that without induction | cell growth of NHAC (MTT, absorbance at 550 nm) (NHAC [3]): increased

B1: human asporin D13: human asporin with 13 aspartic acid repeats, expressed from pcDNA3.1-ASP13 (SEQ ID NO:4) (protein, UniProt Q9BXN1 33-380, looked up)
Asporin: DMEDTDDDDDDDDDDDDDDEDNSLFPTREPRSHFFPFDLFPMCPFGCQCYSRVVHCSDLGLTSVPTNIPFDTRMLDLQNNKIKEIKENDFKGLTSLYGLILNNNKLTKIHPKAFLTTKKLRRLYLSHNQLSEIPLNLPKSLAELRIHENKVKKIQKDTFKGMNALHVLEMSANPLDNNGIEPGAFEGVTVFHIRIAEAKLTSVPKGLPPTLLELHLDYNKISTVELEDFKRYKELQRLGLGNNKITDIENGSLANIPRVREIHLENNKLKKIPSGLPELKYLQIIFLHSNSIARVGVNDFCPTVPKMKKSLYSAISLFNNPVKYWEMQPATFRCVLSRMSVQLGNFGM
elevation of the TGF-β1-stimulated expression levels of the aggrecan and type II collagen genes [4]: suppressed compared to mock | elevation of the TGF-β1-stimulated expression levels of the aggrecan and type II collagen genes [5]: suppressed | expression of the aggrecan and type II collagen genes during cartilage differentiation culture [6]: did not rise | intensity of staining with Alcian Blue (extracellular proteoglycan) [7]: mock>D13>D14
